The source of these data is PMC7277649, “Amaryllidaceae Alkaloids of Belladine-Type from Narcissus pseudonarcissus cv. Carlton as New Selective Inhibitors of Butyrylcholinesterase” (Biomolecules, 2020).

The structures appear in SMILES notation.

The target in assay [1] is T1, hBuChE (Homo sapiens, UniProt P06276).
T1 construct: 8.3 μL of either blood cell lysate or plasma dilutions; from tissue; host or cells: plasma
The assay is described as follows: biochemical. The assay is classed as biochemical. Particulars: for IC50: mean ± SD of three independent measurements, each in triplicate; for inhibition at 100 µM: tested at 100 µM compound concentration, read-out: % inhibition hBuChE ± SD; for SI for hBuChE: ratio hAChE IC50/hBuChE IC50. The procedure: (§1) The hAChE and hBuChE activities were determined using a modified method of Ellman, as described. Briefly, hAChE and hBuChE activities were determined using a modified method of Ellman, with acetylthiocholine iodide (ATChI) and butyrylthiocholine iodide (BuTChI) as substrates, respectively. Briefly, 8.3 μL of either blood cell lysate or plasma dilutions (at least six different concentrations), 283 μL of 5 mM 5,5′-dithiobis-2-nitrobenzoic acid (DTNB) and 8.3 μL of the sample dilution in dimethyl sulfoxide (DMSO) (40 mM, 10 mM, 4 mM, 1 mM, 0.4 mM, and 0 mM) were added to the semi-micro cuvette. The reaction was initiated by addition of 33.3 μL 10 mM substrate (ATChI or BuTChI). The final proportion of DTNB and substrate was […]. The increase of absorbance (ΔA) at 436 nm for AChE and 412 nm for BuChE was measured for 1 min at 37 °C using a spectrophotometer (Synergy^TM HT Multi-Detection Microplate Reader). Each measurement was repeated six times for every concentration of enzyme preparation.

Assay [2] concerns the target T2, hAChE (Homo sapiens, UniProt P22303).
T2 construct: 8.3 μL of either blood cell lysate or plasma dilutions; from tissue; host or cells: blood cell lysate
Nature of the assay: biochemical. Particulars: for IC50: mean ± SD of three independent measurements, each in triplicate; for inhibition at 100 µM: tested at 100 µM compound concentration, read-out: %Inhibition hAChE ± SD. The protocol:
as §1

Assay [3] addresses T3, POP (EC 3.4.21.26) (Homo sapiens, UniProt P48147).
T3 sequence (P48147 1-710): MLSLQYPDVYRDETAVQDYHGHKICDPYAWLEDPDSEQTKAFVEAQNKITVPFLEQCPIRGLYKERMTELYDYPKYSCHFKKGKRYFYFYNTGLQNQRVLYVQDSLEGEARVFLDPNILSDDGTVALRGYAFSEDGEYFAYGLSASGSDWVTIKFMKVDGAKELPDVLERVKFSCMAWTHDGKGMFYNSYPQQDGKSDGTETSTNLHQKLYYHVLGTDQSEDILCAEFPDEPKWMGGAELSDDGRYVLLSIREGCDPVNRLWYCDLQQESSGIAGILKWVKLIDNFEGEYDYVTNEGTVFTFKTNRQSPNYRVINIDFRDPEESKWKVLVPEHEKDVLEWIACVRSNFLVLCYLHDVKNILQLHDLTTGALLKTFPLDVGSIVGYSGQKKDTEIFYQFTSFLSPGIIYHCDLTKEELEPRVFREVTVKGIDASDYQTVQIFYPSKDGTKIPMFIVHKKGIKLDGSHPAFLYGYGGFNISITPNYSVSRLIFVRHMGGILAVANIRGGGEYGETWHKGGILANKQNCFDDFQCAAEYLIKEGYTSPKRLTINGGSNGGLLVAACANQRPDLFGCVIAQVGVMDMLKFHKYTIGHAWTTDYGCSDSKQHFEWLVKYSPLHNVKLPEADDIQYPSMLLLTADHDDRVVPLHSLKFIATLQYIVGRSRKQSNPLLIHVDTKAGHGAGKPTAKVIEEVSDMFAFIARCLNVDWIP
Nature of the assay: POP inhibition assay. The assay is classed as biochemical. The protocol: POP (EC 3.4.21.26) was dissolved in phosphate-buffered saline (PBS; 0.01 M Na/K phosphate buffer, pH 7.4, containing 137 mM NaCl and 2.7 mM KCl); the specific activity of the enzyme was 0.2 U/mL. The assay was performed in standard polystyrene 96-well microplates with a flat and clear bottom. Stock solutions of tested compounds were prepared in DMSO (10 mM). Dilutions (10^−3 to 10^−7 M) were prepared from the stock solution with deionized H2O; the control was performed with the same DMSO concentration. POP substrate, (Z)-Gly-Pro-p-nitroanilide, was dissolved in 50% 1,4-dioxane (5 mM). For each reaction, PBS (170 μL), tested compound (5 μL), and POP (5 μL) were incubated for 5 min at 37 °C. Then, substrate (20 μL) was added, and the microplate was incubated for 30 min at 37 °C. The formation of p-nitroanilide, directly proportional to the POP activity, was measured spectrophotometrically at 405 nm using a microplate ELISA reader (multimode microplate reader Synergy 2, BioTek Instruments, Winooski, VT, USA). […] All calculations were performed using GraphPad Prism software version 7.03 for Windows (GraphPad Software Inc., San Diego, California, USA).

As a reminder, the IC50 is the concentration that gives 50% inhibition. What is called inhibition is the drop in the measured response relative to a control, in per cent.

T2 sequence (P22303 other isoform, or with tags, fused parts or gaps): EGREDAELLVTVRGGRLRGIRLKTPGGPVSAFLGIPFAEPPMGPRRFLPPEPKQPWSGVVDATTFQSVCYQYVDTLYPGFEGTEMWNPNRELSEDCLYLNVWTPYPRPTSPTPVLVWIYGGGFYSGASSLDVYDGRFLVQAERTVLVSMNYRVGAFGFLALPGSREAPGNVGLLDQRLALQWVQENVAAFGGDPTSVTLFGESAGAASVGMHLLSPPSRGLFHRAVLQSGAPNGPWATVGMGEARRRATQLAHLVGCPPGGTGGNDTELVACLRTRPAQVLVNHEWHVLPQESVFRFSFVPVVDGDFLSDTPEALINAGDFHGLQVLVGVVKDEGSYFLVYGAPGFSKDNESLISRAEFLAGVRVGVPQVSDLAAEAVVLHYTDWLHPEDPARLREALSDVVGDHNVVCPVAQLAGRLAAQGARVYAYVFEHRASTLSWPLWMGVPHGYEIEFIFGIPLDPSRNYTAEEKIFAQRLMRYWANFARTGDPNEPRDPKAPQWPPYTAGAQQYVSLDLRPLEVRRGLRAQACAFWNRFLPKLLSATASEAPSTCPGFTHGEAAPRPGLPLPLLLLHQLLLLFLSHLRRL

Regarding `COc1ccc2c3c1O[C@H]1C=CC=C[C@@]31CCN(C)C2` [3,4-Anhydrogalanthamine (3), 3,4-anhydrogalanthamine], the IC50 in assay [1] and in assay [2] was above 100 µM throughout. In addition, the results for the inhibition at 100 µM in assay [1] and in assay [2] were 28 ± 1% and 4%, respectively.

As to `COc1cc(CN(C)CCc2ccc(O)cc2)c(-c2cccc3c2N(C)CC3)cc1OC` [Carltonine A (13), carltonine A], the values for the IC50 in assay [3], in assay [1] and in assay [2] were 143 ± 12 µM, 0.91 ± 0.02 µM and above 100 µM, respectively. Moreover, the “SI for hBuChE” value in assay [1] is reported as above 110; in assay [1] (listed as carltonine A (13)) it was “higher than 100”. The inhibition at 100 µM stood at 98 ± 1% in assay [1] and 2% in assay [2].

In the case of `CN(CCc1ccc(O)cc1)Cc1cc2c(cc1-c1cccc3c1N(C)CC3)OCO2` [Carltonine B (14), carltonine B], in assay [1], the IC50 is 0.031 ± 0.001 µM, the “SI for hBuChE” value is above 3226 and the inhibition at 100 µM was 99 ± 1%. Also, in assay [1] (listed as carltonine B (14)), the “SI for hBuChE” value was “higher than 100”. Further, in assay [2], the 50% inhibitory concentration (IC50) was above 100 µM and the inhibition at 100 µM is 40 ± 1%.

For the molecule `COc1cc(CN(CCc2ccc(O)cc2)Cc2cc(OC)c(OC)cc2-c2cccc3c2N(C)CC3)c(-c2cccc3c2N(C)CC3)cc1OC` [Carltonine C (15), carltonine C], in assay [1], the IC50 is 14.8 ± 1.1 µM, the “SI for hBuChE” value is on record as above 7 and the inhibition at 100 µM was determined as 78 ± 1%. In assay [2], the IC50 is above 100 µM and the inhibition at 100 µM was 9%.

`COc1cc(C=O)c(-c2cccc3c2N(C)CC3)cc1OC` [Lycosinine B (1), lycosinine B]: the figures for the IC50 in assay [3], in assay [1] and in assay [2] were 258 ± 14 µM, above 100 µM and above 100 µM, respectively. Besides, the inhibition at 100 µM in assay [1] was determined as 42 ± 1%; in assay [2], 28 ± 1%.

As to `c1ccc2c(c1)ncc1cc3c(cc12)OCO3` [Trispheridine (2), trisphaeridine], the IC50 in assay [1] and in assay [2] was above 100 µM throughout. In addition, the inhibition at 100 µM in assay [1] was determined as 13 ± 1%; in assay [2] it was 6 ± 1%.
